Tested on: lashes and adjacent hairs of the treated eye
Assay: Eyelash / hair growth observed in glaucoma patients treated in one eye
Assay type: in vivo, human
Settings: glaucoma patient treated in only one eye
Description: In the course of treating patients having glaucoma, treatment may only be appropriate in one eye. […] The lash appearance on the lids of the treated eyes would have appeared quite attractive if it represented a bilateral phenomenon. As a result of its asymmetric nature, the long lashes on one side could be construed as disturbing from a cosmetic standpoint. A systemic examination was preformed as a result of the asymmetric phenomenon. It soon became apparent that this altered appearance was not an isolated finding. […] Definite differences could be identified to varying degrees in the lashes and adjacent hairs of all patients who were taking the drug on a unilateral basis for longer than 6 months.
The changes in the lashes were apparent on gross inspection in several patients once attention was focused on the issue. In those with light colored hair and lashes, the differences were only seen easily with the aid of the high magnification and lighting capabilities of the slit lamp biomicroscope. In the course of glaucoma follow-up examination, attention is generally immediately focused on the eye itself. As a result of the high power magnification needed only one eye is seen at a time and the eye is seen at a high enough power that the lashes are not in focus. […]

Compound: CCNC(=O)CCC/C=C\C[C@@H]1[C@@H](/C=C/[C@@H](O)CCc2ccccc2)[C@H](O)C[C@@H]1O [bimatoprost]
- lash appearance in the treated eye versus the non-treated eye: longer, thicker, and fuller

Source: patent US8093282B2, “Therapeutic N-aryl or N-heteroaryl pyrazolidine and pyrazolidinone derivatives” (Allergan, Inc., priority 2008, dated 2012)
